Experimental data as given in US10995322B2, “Processes to prepare elongated 2-ketoacids and C5-C10 compounds therefrom via genetic modifications to microbial metabolic pathways” (priority 2016, dated 2021).

Tests used:
CCCCCCC(=O)C(=O)O = experiment: purified protein, by the assay type; conditions: pH 7.5; 30.0 °C
[1] = target: Enterobacter cloacae isopropylmalate synthase (Gene Accession No. WP_014830637, SEQ ID NO: 2) variant 1457, M255L/R260A/N264Q/H97A/S139G/N167G/P169A/G462D (Enterobacter cloacae, UniProt A0A0H3CGL5, G462D/H97A/M255L/N167G/N264Q/P169A/R260A/S139G); conditions: pH 7.5, 30° C.
Sequence of Enterobacter cloacae isopropylmalate synthase (Gene Accession No. WP_014830637, SEQ ID NO: 2) variant 1457, M255L/R260A/N264Q/H97A/S139G/N167G/P169A/G462D (A0A0H3CGL5 entry or part of it G462D/H97A/M255L/N167G/N264Q/P169A/R260A/S139G): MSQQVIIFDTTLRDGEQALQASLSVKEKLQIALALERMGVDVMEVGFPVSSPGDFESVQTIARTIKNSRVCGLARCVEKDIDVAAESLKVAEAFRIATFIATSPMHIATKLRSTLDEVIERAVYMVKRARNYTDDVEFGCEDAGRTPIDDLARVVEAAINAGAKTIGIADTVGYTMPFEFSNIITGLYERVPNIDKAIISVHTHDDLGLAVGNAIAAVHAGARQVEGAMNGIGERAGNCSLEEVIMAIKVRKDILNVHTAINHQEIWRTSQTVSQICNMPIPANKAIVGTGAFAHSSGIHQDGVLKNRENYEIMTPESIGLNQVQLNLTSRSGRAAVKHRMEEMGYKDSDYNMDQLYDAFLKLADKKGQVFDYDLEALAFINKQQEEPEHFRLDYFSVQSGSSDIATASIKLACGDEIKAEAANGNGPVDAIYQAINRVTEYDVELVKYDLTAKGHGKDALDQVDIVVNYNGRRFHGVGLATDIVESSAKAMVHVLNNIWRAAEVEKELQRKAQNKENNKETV

[2] = target: Citrobacter freundii MGH 56 isopropylmalate synthase (Gene Accession No. KDF09799, SEQ ID NO: 1) variant 1467, G181A/A182G/G210A/A214S/H97A/S139G/N167G/P169A/G4 (Citrobacter freundii, UniProt A0A0D7LMP4, A182G/A214S/G181A/G210A/G462D/H97A/N167G/P169A/S139G); conditions: pH 7.5, 30° C.
Sequence of Citrobacter freundii MGH 56 isopropylmalate synthase (Gene Accession No. KDF09799, SEQ ID NO: 1) variant 1467, G181A/A182G/G210A/A214S/H97A/S139G/N167G/P169A/G4 (A0A0D7LMP4 entry or part of it A182G/A214S/G181A/G210A/G462D/H97A/N167G/P169A/S139G): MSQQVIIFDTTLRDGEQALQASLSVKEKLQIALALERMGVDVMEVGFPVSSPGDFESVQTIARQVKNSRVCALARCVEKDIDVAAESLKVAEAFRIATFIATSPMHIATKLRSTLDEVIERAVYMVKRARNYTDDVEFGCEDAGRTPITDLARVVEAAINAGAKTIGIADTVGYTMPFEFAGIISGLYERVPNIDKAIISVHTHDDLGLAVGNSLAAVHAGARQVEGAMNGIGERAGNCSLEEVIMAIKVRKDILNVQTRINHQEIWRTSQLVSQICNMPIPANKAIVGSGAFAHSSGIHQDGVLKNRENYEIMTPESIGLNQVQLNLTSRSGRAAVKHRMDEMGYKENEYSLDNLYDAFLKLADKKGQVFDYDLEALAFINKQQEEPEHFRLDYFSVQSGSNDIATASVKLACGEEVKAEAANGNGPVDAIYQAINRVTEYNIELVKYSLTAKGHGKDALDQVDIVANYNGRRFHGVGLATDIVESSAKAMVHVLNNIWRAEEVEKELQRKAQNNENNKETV

[3] = target: Citrobacter freundii MGH 56 isopropylmalate synthase (Gene Accession No. KDF09799, SEQ ID NO: 1) variant 1409, H97A/S139G/N167G/P169A/G462D (Citrobacter freundii, UniProt A0A0D7LMP4, G462D/H97A/N167G/P169A/S139G); conditions: pH 7.5, 30° C.
Sequence of Citrobacter freundii MGH 56 isopropylmalate synthase (Gene Accession No. KDF09799, SEQ ID NO: 1) variant 1409, H97A/S139G/N167G/P169A/G462D (A0A0D7LMP4 entry or part of it G462D/H97A/N167G/P169A/S139G): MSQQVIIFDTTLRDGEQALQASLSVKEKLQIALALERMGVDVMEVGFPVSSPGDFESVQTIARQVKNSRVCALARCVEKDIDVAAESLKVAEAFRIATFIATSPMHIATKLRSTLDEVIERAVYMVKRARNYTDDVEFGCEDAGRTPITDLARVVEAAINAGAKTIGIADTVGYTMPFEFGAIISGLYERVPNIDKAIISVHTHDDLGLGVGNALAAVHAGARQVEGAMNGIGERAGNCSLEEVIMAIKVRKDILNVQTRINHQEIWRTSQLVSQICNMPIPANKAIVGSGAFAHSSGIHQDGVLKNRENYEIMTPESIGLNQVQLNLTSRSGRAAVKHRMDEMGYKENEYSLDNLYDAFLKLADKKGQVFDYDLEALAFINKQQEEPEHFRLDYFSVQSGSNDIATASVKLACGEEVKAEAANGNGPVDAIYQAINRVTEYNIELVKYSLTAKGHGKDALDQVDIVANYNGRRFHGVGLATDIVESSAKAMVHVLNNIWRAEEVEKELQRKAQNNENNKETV

[4] = target: Citrobacter freundii MGH 56 isopropylmalate synthase (Gene Accession No. KDF09799, SEQ ID NO: 1) variant 1466, G210A/A214S/H97A/S139G/N167G/P169A/G462D (Citrobacter freundii, UniProt A0A0D7LMP4, A214S/G210A/G462D/H97A/N167G/P169A/S139G); type: biochemical; conditions: acetyl-CoA 0-10 mM, 2-ketooctanoate 2 mM, pH 7.5, 30° C.
Sequence of Citrobacter freundii MGH 56 isopropylmalate synthase (Gene Accession No. KDF09799, SEQ ID NO: 1) variant 1466, G210A/A214S/H97A/S139G/N167G/P169A/G462D (A0A0D7LMP4 entry or part of it A214S/G210A/G462D/H97A/N167G/P169A/S139G): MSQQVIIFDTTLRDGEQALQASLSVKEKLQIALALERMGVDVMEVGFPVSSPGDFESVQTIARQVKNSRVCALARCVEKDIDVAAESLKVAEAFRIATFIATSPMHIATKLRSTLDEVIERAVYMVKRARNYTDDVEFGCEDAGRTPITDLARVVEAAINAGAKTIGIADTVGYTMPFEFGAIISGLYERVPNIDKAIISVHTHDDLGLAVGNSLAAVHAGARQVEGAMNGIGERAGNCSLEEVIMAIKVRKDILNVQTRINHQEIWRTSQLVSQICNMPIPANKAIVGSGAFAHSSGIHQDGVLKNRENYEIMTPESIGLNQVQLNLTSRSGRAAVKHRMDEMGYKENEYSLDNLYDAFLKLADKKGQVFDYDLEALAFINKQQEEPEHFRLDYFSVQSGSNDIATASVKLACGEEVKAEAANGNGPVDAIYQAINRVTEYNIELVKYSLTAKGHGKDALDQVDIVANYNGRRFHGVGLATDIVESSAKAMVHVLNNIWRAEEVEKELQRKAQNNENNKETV

[5] = target: Enterobacter cloacae isopropylmalate synthase (Gene Accession No. WP_014830637, SEQ ID NO: 2) variant 1460, D348E/D350E/M353L/Q355N/H97A/S139G/N167G/P169A/G462D (Enterobacter cloacae, UniProt A0A0H3CGL5, D348E/D350E/G462D/H97A/M353L/N167G/P169A/Q355N/S139G); conditions: pH 7.5, 30° C.
Sequence of Enterobacter cloacae isopropylmalate synthase (Gene Accession No. WP_014830637, SEQ ID NO: 2) variant 1460, D348E/D350E/M353L/Q355N/H97A/S139G/N167G/P169A/G462D (A0A0H3CGL5 entry or part of it D348E/D350E/G462D/H97A/M353L/N167G/P169A/Q355N/S139G): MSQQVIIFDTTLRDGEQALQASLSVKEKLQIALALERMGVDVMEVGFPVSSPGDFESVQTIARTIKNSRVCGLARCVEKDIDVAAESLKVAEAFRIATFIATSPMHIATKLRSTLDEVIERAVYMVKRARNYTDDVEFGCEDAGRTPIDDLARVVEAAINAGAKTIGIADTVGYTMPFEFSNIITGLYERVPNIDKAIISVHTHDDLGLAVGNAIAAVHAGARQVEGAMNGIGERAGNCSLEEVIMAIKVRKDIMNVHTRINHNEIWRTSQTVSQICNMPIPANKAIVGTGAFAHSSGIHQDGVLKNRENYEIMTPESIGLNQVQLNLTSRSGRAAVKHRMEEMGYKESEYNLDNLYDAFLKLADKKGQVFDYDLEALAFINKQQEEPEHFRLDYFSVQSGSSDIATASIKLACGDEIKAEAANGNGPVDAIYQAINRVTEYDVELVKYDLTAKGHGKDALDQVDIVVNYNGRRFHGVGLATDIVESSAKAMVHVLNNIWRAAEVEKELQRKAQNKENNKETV

[6] = target: Enterobacter cloacae isopropylmalate synthase (Gene Accession No. WP_014830637, SEQ ID NO: 2) variant 1414, H97A/S139G/N167G/P169A/G462D (Enterobacter cloacae, UniProt A0A0H3CGL5, G462D/H97A/N167G/P169A/S139G); conditions: pH 7.5, 30° C.
Sequence of Enterobacter cloacae isopropylmalate synthase (Gene Accession No. WP_014830637, SEQ ID NO: 2) variant 1414, H97A/S139G/N167G/P169A/G462D (A0A0H3CGL5 entry or part of it G462D/H97A/N167G/P169A/S139G): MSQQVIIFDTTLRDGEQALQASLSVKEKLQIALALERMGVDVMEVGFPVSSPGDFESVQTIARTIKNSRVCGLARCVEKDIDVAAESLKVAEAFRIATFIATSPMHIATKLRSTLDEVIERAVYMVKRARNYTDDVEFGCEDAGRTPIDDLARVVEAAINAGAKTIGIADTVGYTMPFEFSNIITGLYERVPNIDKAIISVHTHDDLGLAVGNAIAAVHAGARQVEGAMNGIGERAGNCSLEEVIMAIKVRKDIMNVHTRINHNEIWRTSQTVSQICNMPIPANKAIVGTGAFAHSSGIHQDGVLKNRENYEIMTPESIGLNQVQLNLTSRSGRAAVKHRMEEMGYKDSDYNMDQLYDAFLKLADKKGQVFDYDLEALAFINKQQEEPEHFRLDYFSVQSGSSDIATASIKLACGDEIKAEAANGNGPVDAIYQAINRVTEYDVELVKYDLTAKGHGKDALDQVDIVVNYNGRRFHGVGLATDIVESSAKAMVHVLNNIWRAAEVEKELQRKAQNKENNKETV

[7] = system: CC(=O)SCCNC(=O)CCNC(=O)[C@H](O)C(C)(C)COP(=O)(O)OP(=O)(O)OC[C@H]1O[C@@H](n2cnc3c(N)ncnc32)[C@H](O)[C@@H]1OP(=O)(O)O; experiment: purified protein, by the assay type; conditions: pH 7.5; 30.0 °C
[8] = system: Citrobacter freundii MGH 56 isopropylmalate synthase (Gene Accession No. KDF09799, SEQ ID NO: 1) variant 1467, G181A/A182G/G210A/A214S/H97A/S139G/N167G/P169A/G4 …; conditions: 2-ketooctanoate
[9] = substrate: CCCCCCC(=O)C(=O)O; experiment: Kinetic evaluation of isopropylmalate synthase construct 614 (DTNB/CoASH assay); type: biochemical, E. coli; conditions: other: 2-ketooctanoate 0-3.2 mM, acetyl-CoA 2 mM, pH 7.5, 30° C.
Procedure: (§1) Codons of 13 additional amino acids that included six histidine's were fused upstream of the codon of Met-1 of each IPMS gene sequence. Such a modification allowed expression of a His-tagged IPMS having 13 additional amino acids on the N-terminus. To the resulting modified gene, additional bases were added to introduce a NcoI and a SacI restriction site at the 5′- and 3′-end, respectively, for cloning purposes. The whole DNA sequence was chemically synthesized and cloned into the E. coli expression vector, pETDuet-1 at the NcoI and SacI sites by SGI Inc. His-tagged IPMSs were heterologously expressed in E. coli BL21 (DE3) cells and purified using Co-NTA chromatography. It is noted that none of the Sequence Listings included herein show the histidine-tag that is used, which in this case is […]
(§2) For expressing isopropylmalate synthases and its variants, competent cells of E. coli BL21(DE3) cells (acquired from EMD Biosciences) were transformed using standard procedures with the pETDuet expression vector containig their gene sequences. Cells harboring the expression vector were selected on LB agar plates containing 50 μg/mL of ampicillin. A starter culture was started by transferring a single colony of transformant into 50 mL of LB medium containing 100 μg/mL of ampicillin and incubated at 37° C. with shaking at 220 rpm overnight. On the next day, 7 mL of starter culture was inoculated into 800 mL of Terrific Broth (TB) and the culture was incubated at 37° C. until it reached an OD600 nm of 0.5. Isopropyl β-D-1-thiogalacto-pyranoside (IPTG) at a final concentration of 1 mM was added to induce the expression of the isopropylmalate synthase or its variant and the culture was transferred to a 15° C. incubator for 16 hours (h). At the end of 16 h, the culture was centrifuged at 8000 revolutions per minute (rpm) to pelletize the cells. The cell pellet was stored at −80° C. overnight before purification.
(§3) For isolation and purification of the enzyme, cell pellet taken from 400 mL of expression culture was suspended in B-PER reagent (Thermo Fisher Scientific, Inc., Rockford, Ill.) containing 1 μg/mL of DNAse (Thermo Fisher Scientific, Inc., Rockford, Ill.), 1 μg/mL of lysozyme (Thermo Fisher Scientific, Inc., Rockford, Ill.), 1 millimolar (mM) of dithiothreitol, and protease inhibitor cocktail (RPI Corp., Mount Prospect, Ill.). The suspension was rocked gently for 30 minutes (min) at room temperature and centrifuged at 15,000 times gravity (×g) for 20 min to pelletize cell debris. The supernatant was separated and incubated with 5 mL of Co-NTA resin (Thermo Fisher Scientific, Inc., Rockford, Ill.) that had been pre-equilibrated with an equilibration buffer (50 mM sodium phosphate, pH 8.0, containing 300 mM sodium chloride, 20 mM imidazole, 50 μL protease inhibitor cocktail, and 15% glycerol). Following an incubation period of 1 h at 4° C., the enzyme bound resin was washed with 5 volumes of equilibration buffer. Isopropylmalate synthase or its variants were eluted from the Co-NTA resin with equilibration buffer containing 200 mM imidazole. The eluted proteins were dialyzed against phosphate buffered saline and stored as a 20% glycerol solution at −20° C.
(§4) The evaluation of the LeuA variants was performed in two steps using the high-throughput enzyme assay described below. Initially, all the variants were tested for activity against a single high concentration of 2-KBut, 2-KHex, and 2-KOct. The spectrophotometric isopropylmalate synthase enzyme assay reported by Marcheschi et al (Marcheschi, R. J.; Li, H.; Zhang, K.; Noey, E. L.; Kim, S.; Chaubey, A.; Houk, K. N.; Liao, J. C. A synthetic recursive “+1” pathway for carbon chain elongation. ACS chemical biology 2012, 7, 689-697) was adapted into a high-throughput format in 96-well plates for the kinetic evaluation of the isopropylmalate synthase variants (shown in Table 1). […]

[10] = substrate: CC(=O)SCCNC(=O)CCNC(=O)[C@H](O)C(C)(C)COP(=O)(O)OP(=O)(O)OC[C@H]1O[C@@H](n2cnc3c(N)ncnc32)[C@H](O)[C@@H]1OP(=O)(O)O; experiment: as above; type: biochemical, E. coli; conditions: other: acetyl-CoA 0-10 mM, 2-ketooctanoate 2 mM, pH 7.5, 30° C.
Procedure: as §1, §2, §3, §4

[11] = acetyl-CoA 0-10 mM, 2-ketooctanoate 2 mM
[12] = 2-ketooctanoate 0-3.2 mM, acetyl-CoA 2 mM

## Enterobacter cloacae isopropylmalate synthase (Gene Accession No. WP_014830637, SEQ ID NO: 2) variant 1414, H97A/S139G/N167G/P169A/G462D (Enterobacter cloacae subsp. cloacae ATCC 13047; G462D/H97A/N167G/P169A/S139G)
CCCCCCC(=O)C(=O)O
  Km: 124 ± 8 µM

## CC(=O)SCCNC(=O)CCNC(=O)[C@H](O)C(C)(C)COP(=O)(O)OP(=O)(O)OC[C@H]1O[C@@H](n2cnc3c(N)ncnc32)[C@H](O)[C@@H]1OP(=O)(O)O [acetyl CoA, acetyl coenzyme A]
[1]; [11]
  kcat (acetyl CoA): 3.83 ± 0.083 s⁻¹
[2]; [11]
  kcat (acetyl CoA): 5.2 ± 0.25 s⁻¹
[3]; [11]
  kcat (acetyl CoA): 0.118 ± 0.02 s⁻¹
[4]
  kcat (acetyl CoA): 0.4 ± 0.04 s⁻¹
[5]; [11]
  kcat (acetyl CoA): 3.43 ± 0.267 s⁻¹
[6]; [11]
  kcat (acetyl CoA): 2.35 ± 0.083 s⁻¹

## Citrobacter freundii MGH 56 isopropylmalate synthase (Gene Accession No. KDF09799, SEQ ID NO: 1) variant 1409, H97A/S139G/N167G/P169A/G462D (Citrobacter freundii; G462D/H97A/N167G/P169A/S139G)
[7]
  Km: 450 ± 240 µM
CCCCCCC(=O)C(=O)O
  Km: 64 ± 9 µM

## CCCCCCC(=O)C(=O)O [2-Ketooctanoic acid, 2-ketooctanoic acid]
[1]; [12]
  kcat (2-ketooctanoic acid): 4.12 ± 0.09 s⁻¹
  kcat/KM (2-ketooctanoic acid): 23550 ± 983 M⁻¹ s⁻¹
[2]; [12]
  kcat (2-ketooctanoic acid): 2.47 ± 0.083 s⁻¹
  kcat/KM (2-ketooctanoic acid): 26450 ± 1970 M⁻¹ s⁻¹
[8]; vs E. coli construct 614
  % more efficient than construct 614 in capturing 2-ketooctanoate (kcat/KM): 30-40%
[8]; vs parent 1409
  fold more efficient than parent construct 1409 in capturing 2-ketooctanoate (kcat/KM): 9 fold
[3]; [12]
  kcat (2-ketooctanoic acid): 0.205 ± 0.0083 s⁻¹
  kcat/KM (2-ketooctanoic acid): 2930 ± 300 M⁻¹ s⁻¹
[5]; [12]
  kcat (2-ketooctanoic acid): 3.5 ± 0.0583 s⁻¹
  kcat/KM (2-ketooctanoic acid): 20620 ± 983 M⁻¹ s⁻¹
[6]; [12]
  kcat (2-ketooctanoic acid): 2.8 ± 0.065 s⁻¹
  kcat/KM (2-ketooctanoic acid): 22580 ± 983 M⁻¹ s⁻¹

## Enterobacter cloacae isopropylmalate synthase (Gene Accession No. WP_014830637, SEQ ID NO: 2) variant 1457, M255L/R260A/N264Q/H97A/S139G/N167G/P169A/G462D (Enterobacter cloacae subsp. cloacae ATCC 13047; G462D/H97A/M255L/N167G/N264Q/P169A/R260A/S139G)
CCCCCCC(=O)C(=O)O
  Km: 176 ± 9 µM

## Citrobacter freundii MGH 56 isopropylmalate synthase (Gene Accession No. KDF09799, SEQ ID NO: 1) variant 1467, G181A/A182G/G210A/A214S/H97A/S139G/N167G/P169A/G462D (Citrobacter freundii; A182G/A214S/G181A/G210A/G462D/H97A/N167G/P169A/S139G)
CCCCCCC(=O)C(=O)O
  Km: 92 ± 9 µM

## Enterobacter cloacae isopropylmalate synthase (Gene Accession No. WP_014830637, SEQ ID NO: 2) variant 1460, D348E/D350E/M353L/Q355N/H97A/S139G/N167G/P169A/G462D (Enterobacter cloacae subsp. cloacae ATCC 13047; D348E/D350E/G462D/H97A/M353L/N167G/P169A/Q355N/S139G)
CCCCCCC(=O)C(=O)O
  Km: 170 ± 7 µM

B1: E. coli isopropylmalate synthase (LeuA, Gene Accession No. EG11226) variant 614, H97A/S139G/N167G/P169A/G462D (Escherichia coli K-12; … (protein)
chain: MSQQVIIFDTTLRDGEQALQASLSVKEKLQIALALERMGVDVMEVGFPVSSPGDFESVQTIARQVKNSRVCALARCVEKDIDVAAESLKVAEAFRIATFIATSPMHIATKLRSTLDEVIERAIYMVKRARNYTDDVEFGCEDAGRTPIADLARVVEAAINAGATTIGIADTVGYTMPFEFAGIISGLYERVPNIDKAIISVHTHDDLGLAVGNSLAAVHAGARQVEGAMNGIGERAGNCSLEEVIMAIKVRKDILNVHTAINHQEIWRTSQLVSQICNMPIPANKAIVGSGAFAHSSGIHQDGVLKNRENYEIMTPESIGLNQIQLNLTSRSGRAAVKHRMDEMGYKESEYNLDNLYDAFLKLADKKGQVFDYDLEALAFIGKQQEEPEHFRLDYFSVQSGSNDIATAAVKLACGEEVKAEAANGNGPVDAVYQAINRITEYNVELVKYSLTAKGHGKDALDQVDIVANYNGRRFHGVGLATDIVESSAKAMVHVLNNIWRAAEVEKELQRKAQHNENNKETV
notes: His-tag (13 additional amino acids, six histidines) (N); made in house; host or cells: E. coli BL21 (DE3)
[9]
  Km: 250 ± 35 µM
  kcat: 4.53 ± 0.3 s⁻¹
  kcat/Km: 18600 ± 1950 M⁻¹ s⁻¹
[10]
  Km: 830 ± 50 µM
  kcat: 4.4 ± 0.133 s⁻¹
  kcat/Km: 5370 ± 383 M⁻¹ s⁻¹
